Values quoted from earlier work, collected in patent US10194661B2, “Methods of making dazomet compositions” (priority 2013, dated 2019).

What was measured:
bees such as honeybees = details: application to wood, which prevents exposure to bees

| SMILES | share of dazomet decomposition products (major product) (dazomet exposed to wood or moist soils) | theoretical maximum decomposition rate / stoichiometric conversion rate to MITC (in wood) | toxicity to bees (bees such as honeybees) |
| --- | --- | --- | --- |
| CN=C=S [MITC, methyl isothiocyanate] | approximately 98% |  |  |
| CN1CSC(=S)N(C)C1 [dazomet, Tetrahydro-3,5-dimethyl-2H-1,3,5-thiadiazine-2-thione] |  | approximately 45% | relatively non-toxic and harmless |
